Test results taken from patent US20240415819A1, “MACROCYCLIC COMPOUNDS AS PROTEASOME SUBUNIT BETA TYPE-5 INHIBITORS” (Lead Discovery Center GmbH, priority 2021, published 2024).

Legend:
[1] = target: T1, β5 subunit of the human constitutive proteasome (CPS) (Homo sapiens, UniProt P28074); assay: β5 inhibition assay, human constitutive proteasome (Suc-LLVY-AMC); format: biochemical; details: IC50 class, Suc-LLVY-AMC substrate
T1 construct: purchased Boston Biochem E-360
Method: The enzymatic activity of the β5 subunit of the human constitutive proteasome (CPS) is analyzed. In another assay, which differs from the assay of the human constitutive proteasome only in using the human immunoproteasome (IPS) the enzymatic activity of the β5 subunit of the human immunoproteasome (IPS) is analyzed. […] Inhibition is indicated as IC50 [nM] (“-”=not measured).

HT-29 cells = assay: CellTiter-Glo luminescent cell viability assay with HT-29 cells (72h incubation); format: cell-based, human; details: Homo sapiens, HT-29, HT29 cells, read-out: CTG HT29
Outline: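 Viability read as CellTiter-Glo luminescence after 72 h compound exposure, with 10 μM staurosporine and DMSO as control wells. Seeding 400 cells per well, compound added 24 h post-plating; IC50 from curve fitting.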

hPMBC = assay: Chymotrypsin-like ProteasomeGlo assay in hPBMC; format: cell-based; details: Homo sapiens; read-out: Pglo hPBMC
Outline: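 IC50 derived from luminescent chymotrypsin-like proteasome activity (Suc-LLVY-Glo substrate plus luciferin detection reagent). Measured after 105 min compound exposure at 37 °C, 5% CO2. Cells were human B cells purified from buffy-coat PBMC.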

SMILES	IC50 [1] [nM]	IC50 (HT-29 cells) [nM]	IC50 (hPMBC) [nM]
Cc1ccc2cc1CNC(=O)[C@H](CCc1ccccc1)NC(=O)[C@@H](NC(=O)C(C)(CO)CO)CC(=O)N1CCCC(CCO2)C1 (stereo partly drawn) [Compound 286, 3-hydroxy-2-(hydroxymethyl)-2-methyl-N-((9S,12S)-5^4-methyl-8,11,14-trioxo-9-phenethyl-4-oxa-7,10-diaza-1(3,1)-piperidina-5(1,3)-benzenacyclotetradecaphane-12-yl)propanamide]	< 100	< 100	< 100
Cc1ccc2cc1CNC(=O)[C@H](CCc1ccccc1)NC(=O)[C@@H](NC(=O)C1(C)COC1)CC(=O)N1CCCC(CCO2)C1 (stereo partly drawn) [Compound 287, 3-methyl-N-((9S,12S)-5^4-methyl-8,11,14-trioxo-9-phenethyl-4-oxa-7,10-diaza-1(3,1)-piperidina-5(1,3)-benzenacyclotetradecaphane-12-yl)oxetane-3-carboxamide]	< 100	< 100	< 100
Cc1ccc2cc1CNC(=O)[C@H](CCc1ccccc1)NC(=O)[C@@H](NC(=O)C1(C)CCOCC1)CC(=O)N1CCCC(CCO2)C1 (stereo partly drawn) [Compound 288, 4-methyl-N-((9S,12S)-5^4-methyl-8,11,14-trioxo-9-phenethyl-4-oxa-7,10-diaza-1(3,1)-piperidina-5(1,3)-benzenacyclotetradecaphane-12-yl)tetrahydro-2H-pyran-4-carboxamide]	< 100	< 100	< 100
Cc1ccc2cc1CNC(=O)[C@@H](CCc1ccccc1)NC(=O)[C@@H](NC(=O)OCc1ccccc1)CC(=O)N1CCC[C@H](CCO2)C1 [Compound 289, benzyl ((13R,9R,12S)-5^4-methyl-8,11,14-trioxo-9-phenethyl-4-oxa-7,10-diaza-1(3,1)-piperidina-5(1,3)-benzenacyclotetradecaphane-12-yl)carbamate]	100 to 500	100 to 500	500 to 1000
Cc1ccc2cc1CNC(=O)[C@@H](CCc1ccccc1)NC(=O)[C@H](NC(=O)OCc1ccccc1)CC(=O)N1CCC[C@H](CCO2)C1 [Compound 290, benzyl ((13R,9R,12R)-5^4-methyl-8,11,14-trioxo-9-phenethyl-4-oxa-7,10-diaza-1(3,1)-piperidina-5(1,3)-benzenacyclotetradecaphane-12-yl)carbamate]	1000 to 5000	100 to 500	> 5000
Cc1ccc2cc1CNC(=O)[C@H](CCc1ccccc1)NC(=O)[C@@H](NC(=O)C(C)(C)C#N)CC(=O)N1CCCC(CCO2)C1 (stereo partly drawn) [Compound 294, 2-cyano-2-methyl-N-((9S,12S)-54-methyl-8,11,14-trioxo-9-phenethyl-4-oxa-7,10-diaza-1(3,1)-piperidina-5(1,3)-benzenacyclotetradecaphane-12-yl)propanamide]	< 100	< 100	< 100
CC(=O)N[C@H]1CC(=O)N2CCCC(CCOc3ccc(C)c(c3)CNC(=O)C(c3cnn(CCCC(=O)O)c3)NC1=O)C2 (stereo partly drawn) [Compound 568, 4-(4-((12S)-12-acetamido-5^4-methyl-8,11,14-trioxo-4-oxa-7,10-diaza-1(3,1)-piperidina-5(1,3)-benzenacyclotetradecaphane-9-yl)-1H-pyrazol-1-yl)butanoic acid]	< 100	100 to 500	< 100
CC(=O)N[C@H]1CC(=O)N2CCCC(CCOc3ccc(C)c(c3)CNC(=O)C(c3cnn(CCCS(=O)(=O)O)c3)NC1=O)C2 (stereo partly drawn) [Compound 571, 3-(4-((12S)-12-acetamido-5^4-methyl-8,11,14-trioxo-4-oxa-7,10-diaza-1(3,1)-piperidina-5(1,3)-benzenacyclotetradecaphane-9-yl)-1H-pyrazol-1-yl)propane-1-sulfonic acid]	< 100	500 to 1000	< 100
